{"source": "patent EP2045247B1", "about": "“Compounds for the inhibition of histone deacetylase” (NatureWise Biotech & Medicals Corporation, priority 2007, dated 2009)", "key": {"acetylated histone H4": {"test_system": "acetylated histone H4", "test": "Western blotting of hyperacetylated histone H4 in C6 glioma cell lysates", "format": "cell-based, rat", "details": "C6 glioma cells", "method": "Accumulation of hyperacetylated histone H4 was analyzed in the cell lysates by using Western Blotting and the antibody directed against acetylated histone H4 (Upstate). The C6 glioma cells were seeded at a density of 1×10^6 per 10cm culture dish. After 24 hours, the cells were treated with 10 µg/mL of NBM-HD-1 or 4mM sodium butyrate for several hours. The whole-cell lysates were prepared by using denaturing SDS sample buffer and then separated on 15% SDS-polyacrylamide gels. […] The amount of acetylated histones was hardly detectable in untreated C6 glioma cells. The amount of acetylated histone H4 of the cells treated with 4mM sodium butyrate for 2 hours increased. Sodium butyrate was then removed from the culture medium. After 6 hours, the amount of acetylated histone H4 decreased. The accumulation of acetylated histone H4 increased in the cells treated with NBM-HD-1 for 2 hours. […] The highest histone acetylation appeared at 6 hours after the compound had been removed. […] Because NBM-HD-1 is more hydrophobic than sodium butyrate, NBM-HD-1 can be retained in the cells longer than sodium butyrate and continuously induce the acetylation of histone H4."}, "[1]": {"test_system": "human giloblastoma DBTRG-05MG cancer cells", "test": "Inhibition of growth and change of morphology of DBTRG-05MG cells", "format": "cell-based", "details": "NBM-HD-1 2.5, 5 and 10 µg/mL, sodium butyrate 4 mM; 72 hours; density and cell counting (Fig. 7)", "method": "The human giloblastoma DBTRG-05MG cancer cells were cultured in RPMI medium 1640 (Gibco) supplemented with penicillin G, streptomycin sulphate, 0.5 mM of L-glutamine and 10% fetal bovine serum (FBS; Gibco), 100mh/L sodium pyruvate (Gibco), and 1% NEAA (Gibco) at 37 °C, 5% CO2 and 95% relative humidity. For these experiments, the cells were seeded at a density of 3×10^5 per well of 6-well plates. After 24 hours, the cells were treated with different concentrations of NBM-HD-1 and 4 mM sodium butyrate. The cells were observed and counted after 72 hours. […] In 05MG cells (Fig. 7(A)), after incubation with 2.5 µg/mL (Fig. 7(A)-b), 5 µg/mL (Fig. 7(A)-c) and 10 µg/mL (Fig.7(A)-d) of NBM-HD-1 for 72 hours, the density of the cells reduced dramatically in comparison with that of the control group (Fig. 7(A)-a). The 05MG cells in the experimental group also changed to become longer than those in the control group."}, "[2]": {"test_system": "breast cancer MCF-7 cells", "test": "Inhibition of growth and change of morphology of MCF-7 cells", "format": "cell-based, human", "details": "2.5, 5, 7.5 and 10 µg/mL; for morphology of MCF-7 cells: 72 hours (Fig. 13(A), Fig. 14(A)); for growth of MCF-7 cancer cells: sodium butyrate 4mM, observed and counted after 72 hours (Fig. 13, Fig. 14)", "method": "The breast cancer MCF-7 cells, were cultured in Dulbecco's modified Eagle's medium (DMEM; Gibco) supplemented with penicillin G, streptomycin sulphate, 0.5 mM of L-glutamine and 10% fetal bovine serum (FBS; Gibco) at 37 °C, 5% CO2 and 95% relative humidity. The cells were seeded at a density of 3×10^5 per well of 6-well plates. After 24 hours, the cells were treated with different concentrations of compound NBM-HD-1 and 4mM sodium butyrate being used as the positive control. The cells were observed after 48 hours and counted after 96 hours. […] In Fig. 8(A), after the cells were incubated with 2.5 µg/mL (Fig. 8(A)-b), 5 µg/mL (Fig. 8(A)-c) and 10 µg/mL (Fig. 8(A)-d) of NBM-HD-1 for 48 hours, the density of MCF-7 cells reduced dramatically in comparison with that of the control group (Fig. 8(A)-a). The morphology of the MCF-7 cells in the experimental group changed in comparison with that in the control group. […] The results of the cell counting (FIG. 8(B)) indicate that, similar to sodium butyrate, NBM-HD-1 inhibits cell growth.\nMCF-7 cancer cells were seeded at a density of 3×10^5 per well in 6-well plates. After 24 hours, the cells were treated with different concentrations of compound NBM-HD-2 and 4mM sodium butyrate being used as the positive control. The cells were observed and counted after 72 hours. […] In Fig. 13(A), after the cells were incubated with 2.5 µg/mL (Fig. 13(A)-c), 5 µg/mL (Fig. 13(A)-d), 7.5 µg/mL (Fig. 13(A)-e) and 10 µg/mL (Fig. 13(A)-f) of NBM-HD-2 for 72 hours, the density of MCF-7 cells reduced dramatically in comparison with that of the control group (Fig. 13(A)-a). The morphology of the MCF-7 cells in the experimental group changed in comparison with that in the control group.\nMCF-7 cancer cells were seeded at a density of 3×10^5 per well of 6-well plates. After 24 hours, the cells were treated with different concentrations of compound NBM-HD-3 and 4mM sodium butyrate, which was being used as the positive control. The cells were observed and counted after 72 hours. […] In Fig. 14(A), after the cells were incubated with 2.5 µg/mL (Fig. 14(A)-c), 5 µg/mL (Fig. 14(A)-d), 7.5 µg/mL (Fig. 14(A)-e) and 10 µg/mL (Fig. 14(A)-f) of NBM-HD-3 for 72 hours, the density of MCF-7 cells reduced dramatically in comparison with that of the control group (Fig. 14(A)-a). The morphology of the MCF-7 cells in the experimental group changed in comparison with that in the control group. […] The results of the cell counting (FIG. 14(B)) indicate that, similar to sodium butyrate, NBM-HD-3 inhibits cell growth."}}, "data": [{"smiles": "CCCC(=O)[O-].[Na+]", "note": "[sodium butyrate, reference compound]", "values": [{"measurement": "accumulation of acetylated histone H4, treated for 2 hours", "setting": "acetylated histone H4; 10 µg/mL NBM-HD-1 or 4mM sodium butyrate, 2 hours (Fig. 5)", "value": "increased"}, {"measurement": "amount of acetylated histone H4 after removal of the compound from the culture medium", "setting": "acetylated histone H4; up to 6 hours after removal (Fig. 5)", "value": "decreased"}, {"measurement": "growth of 05MG cells", "setting": "[1]", "value": "could inhibit the proliferation of 05MG cancer cells"}]}, {"smiles": "COc1cc2c(c(O)c1CC=C(C)C)C(=O)C[C@@H](c1ccc(OC)c(OC)c1C/C=C(\\C)CCCC(C)(C)O)O2", "note": "[NBM-HD-2]", "values": [{"measurement": "morphology of MCF-7 cells", "setting": "[2]", "value": "change their morphology"}, {"measurement": "growth of MCF-7 cancer cells", "setting": "[2]", "value": "can inhibit the growth of MCF-7 cancer cells in a dose-dependent manner"}]}, {"smiles": "COc1cc2c(c(O)c1CCC(C)(C)O)C(=O)C[C@@H](c1ccc(OC)c(OC)c1C/C=C(\\C)CCCC(C)(C)O)O2", "note": "[NBM-HD-3]", "values": [{"measurement": "morphology of MCF-7 cells", "setting": "[2]", "value": "change their morphology"}, {"measurement": "growth of MCF-7 cancer cells", "setting": "[2]", "value": "can inhibit the growth of MCF-7 cancer cells in a dose-dependent manner"}]}]}
